MIC50, MIC90 and MIC data for four molecules are collected here from EP0554004A2, “Cephem compounds and antibacterial agents” (KATAYAMA SEIYAKUSYO CO. Ltd., priority 1992, dated 1993).

Converted amounts (≈) assume the structure as drawn. Where two headings read alike, the source gives them in different places. Bounds are passed on as bounds.

Broadly, the MIC50 is an inhibitory concentration at the 50% level, which refers to growth in some studies and to a panel of isolates in others. The MIC90 is an inhibitory concentration at the 90% level, which refers to growth in some studies and to a panel of isolates in others. As usually defined, the MIC is the lowest concentration found to suppress growth.

In assay [1] the test system is clinically isolated MRSA. Nature of the assay: Antibacterial potency against clinically isolated MRSA (Test Example 4). It is filed as cell-based, methicillin-resistant Staphylococcus aureus. As to conditions: Staphylococcus aureus. The protocol: (§1) 52 strains of clinically isolated MRSA were used, and MIC was determined for each of the strains according to the standard method of the Japan Chemotherapical Society as in Test Example 1. The minimum growth inhibitory concentration which inhibited growth of 50% of the strains tested was expressed as MIC50 (µg/ml), and the minimum growth inhibitory concentration which inhibited growth of 90% of the strains was expressed as MIC90 (µg/ml).
MIC 50 and MIC 90 were determined for each of the 52 strains of clinically isolated MRSA according to the same method as used in Test Example 2.
VCM (vancomycin) was used as control agent.

Another assay concerns P. aeruginosa NCTC10490. Nature of the assay: MIC against standard strains (Test Example 3). It is filed as cell-based. As to conditions: Pseudomonas aeruginosa. The procedure:
(§2) By using each test strain cultured overnight at 37°C in a Muller-Hinton broth, there was prepared a bacterial solution with a bacterial cell population of 1 x 10^6 CFU/mi of the same bouillon. The bacterial solution was inoculated into the Muller-Hinton agar media each containing respectively one test agent and, after overnight incubation at 37°C, the minimum concentration that inhibited growth of the bacteria was determined and shown as MIC also in Table 1.
(§3) The minimum growth inhibitory concentration was determined for each of the 21 standard strains shown in Table 3, according to the same method as used in Test Example 1.
(§4) In the test, FMOX (flomoxef), CTM (cefotiam) and CEZ (cefazolin) were used as control agents.

A further assay relates to E. cloacae ATCC13407. Nature of the assay: MIC against standard strains (Test Example 3). In kind it is cell-based. To be noted: Enterobacter cloacae. The protocol:
as §2, §3, §4

The test system of a further assay is S. aureus 195. Nature of the assay: MIC against standard strains (Test Example 3). To be noted: Staphylococcus aureus. In kind it is cell-based. The protocol:
as §2, §3, §4

For another assay, the system named is S. aureus 167. As to the kind of experiment: MIC against standard strains (Test Example 3). It is filed as cell-based. To be noted: Staphylococcus aureus. The procedure: as §2, §3, §4
A further assay deals with S. aureus 209p JC-1. Nature of the assay: MIC against standard strains (Test Example 3). In kind it is cell-based. As to conditions: Staphylococcus aureus. The protocol:
as §2, §3, §4

For another assay, the system named is S. epidemidis IAM1296. As to the kind of experiment: MIC against standard strains (Test Example 3). It is filed as cell-based. The protocol:
as §2, §3, §4

A further assay has as its system E. coli CSH2 (RK1). Nature of the assay: MIC against standard strains (Test Example 3). In kind it is cell-based. To be noted: Escherichia coli. The protocol:
as §2, §3, §4

The test system of another assay is A. calcoaceticos T59. Nature of the assay: MIC against standard strains (Test Example 3). It is filed as cell-based. The procedure: as §2, §3, §4
Another assay has as its system S. aureus Smith. Nature of the assay: MIC against standard strains (Test Example 3). To be noted: Staphylococcus aureus. It is filed as cell-based. The protocol: as §2, §3, §4
The next assay has as its system P. vulugaris OX-19. As to the kind of experiment: MIC against standard strains (Test Example 3). In kind it is cell-based. The procedure: as §2, §3, §4
A further assay concerns E. coli CSH2 (RE45). As to the kind of experiment: MIC against standard strains (Test Example 3). As to conditions: Escherichia coli. It is filed as cell-based. The protocol:
as §2, §3, §4

A further assay concerns S. marcescens IAM1184. Nature of the assay: MIC against standard strains (Test Example 3). It is filed as cell-based. As to conditions: Serratia marcescens. The procedure:
as §2, §3, §4

For a further assay, the system named is E. coli NIHJ JC-2. Nature of the assay: MIC against standard strains (Test Example 3). It is filed as cell-based. As to conditions: Escherichia coli, NIHJJC2. The procedure:
as §2, §3, §4

The test system of the next assay is M. Morganii IFO3848. As to the kind of experiment: MIC against standard strains (Test Example 3). In kind it is cell-based. To be noted: Morganella morganii. The procedure: as §2, §3, §4
In another assay the test system is C. freundii ATCC8090. Nature of the assay: MIC against standard strains (Test Example 3). As to conditions: Citrobacter freundii. In kind it is cell-based. The protocol: as §2, §3, §4
The subject of the next assay is A. faecalis ATCC3750. As to the kind of experiment: MIC against standard strains (Test Example 3). In kind it is cell-based. As to conditions: Alcaligenes faecalis. The procedure:
as §2, §3, §4

The subject of a further assay is K. pneumoniae IFO3317. As to the kind of experiment: MIC against standard strains (Test Example 3). In kind it is cell-based. To be noted: Klebsiella pneumoniae. The procedure: as §2, §3, §4
In a further assay the test system is K. pneumoniae No. 42. Nature of the assay: MIC against standard strains (Test Example 3). It is filed as cell-based. To be noted: Klebsiella pneumoniae. The protocol: as §2, §3, §4
For a further assay, the system named is B. subtilis ATCC6633. As to the kind of experiment: MIC against standard strains (Test Example 3). It is filed as cell-based. To be noted: Bacillus subtilis. The procedure: as §2, §3, §4
In the next assay the test system is M. luteus ATCC 9341. As to the kind of experiment: MIC against standard strains (Test Example 3). In kind it is cell-based. As to conditions: Micrococcus luteus, ATCC9341. The protocol: as §2, §3, §4
A further assay concerns P. mirabilis IFO3849. As to the kind of experiment: MIC against standard strains (Test Example 3). In kind it is cell-based. To be noted: Proteus mirabilis. The protocol:
as §2, §3, §4

For assay [2], the system named is clinically isolated MRSA. As to the kind of experiment: Antibacterial potency against clinically isolated MRSA (Test Example 2). It is filed as cell-based, methicillin-resistant Staphylococcus aureus. To be noted: Staphylococcus aureus, 52 strains of clinically isolated MRSA. The procedure: A test on the antibacterial potency against clinically isolated MRSA was conducted in the following way.
as §1
In this test, FMOX (flomoxef), IPM/CS (imipenem/cilastatin), CMZ (cefmetazole), MINO (minocycline) and DMPPC (methicillin) were used as control agents.

For the molecule `CN[C@H](CC(C)C)C(=O)N[C@H]1C(=O)N[C@@H](CC(N)=O)C(=O)N[C@H]2C(=O)N[C@H]3C(=O)N[C@H](C(=O)N[C@H](C(=O)O)c4cc(O)cc(O)c4-c4cc3ccc4O)[C@H](O)c3ccc(c(Cl)c3)Oc3cc2cc(c3O[C@@H]2O[C@H](CO)[C@@H](O)[C@H](O)[C@H]2O[C@H]2C[C@](C)(N)[C@H](O)[C@H](C)O2)Oc2ccc(cc2Cl)[C@H]1O` [VCM, vancomycin, reference compound], in the assay with clinically isolated MRSA [1] (MRSA), the MIC50 is 0.74 µg/mL (≈ 0.511 µM) and the MIC90 worked out at 1.38 µg/mL (≈ 0.952 µM).
As for `CNC(=O)c1ccc[n+](CC2=C(C(=O)[O-])N3C(=O)[C@@H](NC(=O)/C(=N\O)c4csc(N)n4)[C@H]3SC2)c1` [Compound (6), 7β-[2-(2-aminothiazol-4-I)-2-syn-hydroxyiminoacetamido]-3-[(3-N-methylcarbamoyl)-1-pyridinio)methyl]-3-cephem-4-carboxylic acid chloride], the MIC50 in the assay with clinically isolated MRSA [1] (52 strains of clinically isolated MRSA, concentration inhibiting growth of 50% of the strains (Test Example 4), read-out: MIC50) was determined as 2.15 µg/mL. Further, the MIC90 in the assay on clinically isolated MRSA [1] (52 strains of clinically isolated MRSA, concentration inhibiting growth of 90% of the strains (Test Example 4), read-out: MIC90) came to 7.18 µg/mL. Also, the MIC with P. aeruginosa NCTC10490 (P. aeruginosa NCTC10490 (Test Example 3), read-out: MIC) is 3.13 µg/mL; with E. cloacae ATCC13407 (E. cloacae ATCC13407 (Test Example 3), read-out: MIC), 1.56 µg/mL; in the assay on S. aureus 195 (S. aureus 195 (MRSA) (Test Example 3), read-out: MIC) it was 3.13 µg/mL; with S. aureus 167 (S. aureus 167 (MRSA) (Test Example 3), read-out: MIC), 12.5 µg/mL; with S. aureus 209p JC-1 (S. aureus 209p JC-1 (Test Example 3), read-out: MIC) it was 0.39 µg/mL; in the assay on S. epidemidis IAM1296 (S. epidemidis IAM1296 (Test Example 3), read-out: MIC), 0.2 µg/mL. Also, the MIC with E. coli CSH2 (RK1) was 1.56 µg/mL; with A. calcoaceticos T59 (A. calcoaceticos T59 (Test Example 3), read-out: MIC), 12.5 µg/mL; with S. aureus Smith (S. aureus Smith (Test Example 3), read-out: MIC), 0.78 µg/mL; in the assay with P. vulugaris OX-19 (P. vulugaris OX-19 (Test Example 3), read-out: MIC), 0.78 µg/mL; in the assay with E. coli CSH2 (RE45), 0.78 µg/mL; in the assay on S. marcescens IAM1184 (S. marcescens IAM1184 (Test Example 3), read-out: MIC) it was 0.39 µg/mL. Moreover, the MIC is 0.39 µg/mL in the assay on E. coli NIHJ JC-2 (E. coli NIHJ JC-2 (Test Example 3), read-out: MIC); 0.2 µg/mL in the assay with M. Morganii IFO3848 (M. Morganii IFO3848 (Test Example 3), read-out: MIC); 0.39 µg/mL in the assay on C. freundii ATCC8090 (C. freundii ATCC8090 (Test Example 3), read-out: MIC); 3.13 µg/mL in the assay on A. faecalis ATCC3750 (A. faecalis ATCC3750 (Test Example 3), read-out: MIC); 0.39 µg/mL in the assay on K. pneumoniae IFO3317 (K. pneumoniae IFO3317 (Test Example 3), read-out: MIC); 0.78 µg/mL with K. pneumoniae No. 42 (K. pneumoniae No. 42 (Test Example 3), read-out: MIC). Moreover, the MIC was 0.78 µg/mL in the assay on B. subtilis ATCC6633 (B. subtilis ATCC6633 (Test Example 3), read-out: MIC); 0.1 µg/mL in the assay on M. luteus ATCC 9341 (M. luteus ATCC 9341 (Test Example 3), read-out: MIC); 0.39 µg/mL in the assay with P. mirabilis IFO3849 (P. mirabilis IFO3849 (Test Example 3), read-out: MIC).
Consider `NC(=O)Oc1ccc[n+](CC2=C(C(=O)[O-])N3C(=O)[C@@H](NC(=O)/C(=N\O)c4csc(N)n4)[C@H]3SC2)c1` [Compound (8), 7β-[2-(2-aminothiazol-4-yl)-2-syn-hydroxyiminoacetamido]-3-[(3-carbamoyloxy-1-pyridinio)methyl]-3-cephem-4-carboxylic acid chloride], for which the MIC50 with clinically isolated MRSA [1] (MRSA) is 8.34 µg/mL. In addition, the MIC90 against clinically isolated MRSA [1] (MRSA) stood at 37.9 µg/mL. In addition, the MIC is 100 µg/mL in the assay with P. aeruginosa NCTC10490 (NCTC10490); 1.56 µg/mL in the assay on E. cloacae ATCC13407 (ATCC13407); 25 µg/mL against S. aureus 195 (MRSA); 50 µg/mL against S. aureus 167 (MRSA); 0.78 µg/mL against S. aureus 209p JC-1 (209P); 0.39 µg/mL with S. epidemidis IAM1296. For the same molecule, the MIC was 0.39 µg/mL against E. coli CSH2 (RK1); 25 µg/mL in the assay on A. calcoaceticos T59; 1.56 µg/mL with S. aureus Smith; 0.2 µg/mL in the assay on P. vulugaris OX-19; 0.2 µg/mL in the assay on E. coli CSH2 (RE45); 0.39 µg/mL against S. marcescens IAM1184 (IAM1184). For the same molecule, the MIC in the assay with E. coli NIHJ JC-2 amounted to 0.1 µg/mL; in the assay on M. Morganii IFO3848 (IFO3848), 0.05 µg/mL; against C. freundii ATCC8090 (ATCC8090), 0.39 µg/mL; against A. faecalis ATCC3750 (ATCC3750), 0.78 µg/mL; against K. pneumoniae IFO3317 (IFO3317) it was 0.1 µg/mL; against K. pneumoniae No. 42 (NO.42), 0.39 µg/mL. Moreover, the MIC in the assay on B. subtilis ATCC6633 (ATCC6633) came to 0.39 µg/mL; against M. luteus ATCC 9341 it was 0.1 µg/mL; against P. mirabilis IFO3849 (IFO3849), 0.1 µg/mL.
In the assay with clinically isolated MRSA [2] (concentration inhibiting growth of 50% of the strains (Test Example 2)), `COc1cccc(OC)c1C(=O)N[C@@H]1C(=O)N2[C@@H]1SC(C)(C)[C@@H]2C(=O)O` [DMPPC, methicillin, reference compound] yielded an MIC50 of 42.5 µg/mL (≈ 112 µM). This molecule returned an MIC90 in the assay on clinically isolated MRSA [2] (concentration inhibiting growth of 90% of the strains (Test Example 2)) of more than 100 µg/mL.
